ChEMBL document CHEMBL1132060, “Octa- and nonaprenylhydroquinone sulfates, inhibitors of alpha1,3-fucosyltransferase VII, from an Australian marine sponge Sarcotragus sp” (Bioorg Med Chem Lett, 1999)

Experiment: Inhibitory activity against fuc-TVII

## CC(C)=CCC/C(C)=C/CC/C(C)=C/CC/C(C)=C/CC/C(C)=C/CC/C(C)=C/CC/C(C)=C/CC/C(C)=C/CC/C(C)=C/Cc1cc(O)ccc1OS(=O)(=O)[O-].[Na+]
  IC50: 2.4 µg/mL

## CC(C)=CCC/C(C)=C/CC/C(C)=C/CC/C(C)=C/CC/C(C)=C/CC/C(C)=C/CC/C(C)=C/CC/C(C)=C/Cc1cc(O)ccc1OS(=O)(=O)[O-].[Na+]
  IC50: 3.9 µg/mL
